Assay results from PubChem BioAssay (NCI).
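Five compound concentrations were applied to cells in 96-well plates for 48 hours; endpoints were derived by simple linear interpolation of the resulting dose-response curve. Here, GI50 denotes the concentration required for 50% inhibition of growth. Definition used: TGI = concentration required for complete inhibition of growth.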

What was measured:
Assay in all cases: NCI-60 cell line screen, 48 h
[1] = system: SN12C renal
[2] = system: DU-145 prostate
[3] = system: HS 578T breast
[4] = system: OVCAR-5 ovarian
[5] = system: SF-268 CNS
[6] = system: UACC-257 melanoma
[7] = system: SNB-19 CNS
[8] = system: SNB-75 CNS
[9] = system: KM12 colon
[10] = system: RPMI-8226 leukemia
[11] = system: HL-60(TB) leukemia
[12] = system: U251 CNS
[13] = system: MALME-3M melanoma
[14] = system: HCT-116 colon
[15] = system: SK-MEL-2 melanoma
[16] = system: A498 renal
[17] = system: OVCAR-3 ovarian
[18] = system: CAKI-1 renal
[19] = system: LOX IMVI melanoma
[20] = system: EKVX NSCLC
[21] = system: HCT-15 colon
[22] = system: TK-10 renal
[23] = system: HOP-92 NSCLC
[24] = system: MDA-MB-231 breast
[25] = system: HT29 colon
[26] = system: IGROV1 ovarian
[27] = system: OVCAR-8 ovarian

For `COc1ccc2c(c1)C(=O)c1c-2n(CCCN=[N+]=[N-])c(=O)c2cc(OC)c(OC)cc12`, which TGI [1] is on record?
Its TGI is > 100 µM.

What about the GI50 [2] of the same compound?
The GI50 was 26.6 µM.

And the TGI [2]?
Its TGI is > 100 µM.

What about the GI50 [3] of the same compound?
Its GI50 is 70 µM.

What about the TGI [3] of the same compound?
Its TGI is > 100 µM.

What about the GI50 [4] of the same compound?
Its GI50 is > 100 µM.

What about the TGI [4] of the same compound?
Its TGI is > 100 µM.

What about the GI50 [5] of the same compound?
The GI50 was 79.4 µM.

And the TGI [5]?
The TGI was > 100 µM.

What about the GI50 [6] of the same compound?
Its GI50 is > 100 µM.

And the TGI [6]?
The TGI was > 100 µM.

And the GI50 [7]?
Its GI50 is 47 µM.

What about the TGI [7] of the same compound?
Its TGI is > 100 µM.

What about the GI50 [8] of the same compound?
The GI50 was 14.8 µM.

What about the TGI [8] of the same compound?
The TGI was 35.3 µM.

And the GI50 [9]?
The GI50 was > 100 µM.

What about the TGI [9] of the same compound?
The TGI was > 100 µM.

What about the GI50 [10] of the same compound?
Its GI50 is 0.868 µM.

What about the TGI [10] of the same compound?
Its TGI is 5.58 µM.

And the GI50 [11]?
Its GI50 is 13 µM.

And the TGI [11]?
The TGI was 25.7 µM.

What about the GI50 [12] of the same compound?
The GI50 was 24.2 µM.

What about the TGI [12] of the same compound?
The TGI was > 100 µM.

What about the GI50 [13] of the same compound?
Its GI50 is 66.4 µM.

What about the TGI [13] of the same compound?
Its TGI is > 100 µM.

And the GI50 [14]?
The GI50 was 27.8 µM.

And the TGI [14]?
Its TGI is > 100 µM.

And the GI50 [15]?
Its GI50 is > 100 µM.

What about the TGI [15] of the same compound?
Its TGI is > 100 µM.

And the GI50 [16]?
The GI50 was > 100 µM.

And the TGI [16]?
Its TGI is > 100 µM.

And the GI50 [17]?
Its GI50 is 49.2 µM.

What about the TGI [17] of the same compound?
Its TGI is > 100 µM.

What about the GI50 [18] of the same compound?
Its GI50 is 3.82 µM.

What about the TGI [18] of the same compound?
Its TGI is 24.6 µM.

What about the GI50 [19] of the same compound?
Its GI50 is 25.1 µM.

And the TGI [19]?
Its TGI is > 100 µM.

And the GI50 [20]?
Its GI50 is > 100 µM.

And the TGI [20]?
The TGI was > 100 µM.

What about the GI50 [21] of the same compound?
Its GI50 is > 100 µM.

What about the TGI [21] of the same compound?
Its TGI is > 100 µM.

What about the GI50 [22] of the same compound?
The GI50 was 19.5 µM.

What about the TGI [22] of the same compound?
The TGI was 72.1 µM.

What about the GI50 [23] of the same compound?
The GI50 was 9.13 µM.

What about the TGI [23] of the same compound?
The TGI was 44.6 µM.

And the GI50 [24]?
Its GI50 is > 100 µM.

What about the TGI [24] of the same compound?
Its TGI is > 100 µM.

What about the GI50 [25] of the same compound?
Its GI50 is > 100 µM.

And the TGI [25]?
Its TGI is > 100 µM.

What about the GI50 [26] of the same compound?
The GI50 was 16 µM.

And the TGI [26]?
The TGI was > 100 µM.

And the GI50 [27]?
Its GI50 is > 100 µM.

And the TGI [27]?
The TGI was > 100 µM.
